Results as given in patent US7741348B2, “Bisheterocycle tandem compounds useful as antiviral agents, the uses thereof and the compositions comprising such compounds” (Shanghai Institute of Materia Medica, Chinese Academy of …, priority 2005, dated 2010).

Assays:
[1] = test system: Vero (African green monkey kidney) cells; test: 50% toxicity concentration in the anti-herpes virus screen (Vero cells); conditions: 50% toxity concentration, Table 3-1 (herpes virus screen, Vero cells)
hepatitis B virus (HBV) [2] = test: HBV-DNA replication in HepG2.2.15 culture supernatant (fluorescent quantification PCR); type: cell-based; conditions: for IC50: HepG2.2.15 supernatant, eighth day, fluorescent quantification PCR, read-out: DNA replication IC50
Excerpt: (§1) Hepatitis B virus (HBV) transgenic human hepatoma carcinoma cell, HepG2.2.15 cell line, can secrete hepatitis B virus particles (containing antigen and DNA) into supernatant when being cultured.
(§2) Under action of antiviral drugs, the contents of HBsAg, HBeAg and viral DNA secreted from cells into the supernatant were detected and are compared with the contents of control groups without drugs, so that the antiviral activity of the compounds of the present invention can be measured as well as the cytotoxic effect of compounds of the present invention. The value concentration of the compounds of the present invention which caused 50% of cells dead and was measured with MTT method was CC50; and the value concentration of the compounds of the present invention which inhibited the secretion of HBsAg and HBeAg detected by ELISA method and inhibited 50% of viral DNA replication detected by fluorescent quantification PCR method was IC50.
(§3) HepG2.2.15 cells were inoculated on a 96-well plate, and the compounds of the present invention were added next day. The medium and the compound solutions of the same concentration were renewed periodically. The culture supernatants were collected on the eighth day to be detected. MTT was added to the cells on the 96-well plate, and MTT dissolving liquid was added after 4 hours to be reacted overnight. OD570 was measured next day on microplate reader. And the cytotoxicity of the compounds of the present invention to the HepG2.2.15 cells, the effect of the compounds of the present invention on the growth of the cells, and the concentration of the compound of the present invention (CC50) causing 50% of the cells dead were estimated according to the OD values.
A suitable amount of culture supernatant was added into a same volume of virus extract solution, and was boiled after mixed uniformly, then centrifuged at 10000 rpm for 5 min under room temperature. A suitable amount of supernatant was collected for PCR amplification. Five HBV-DNA standard samples were used to set a standard curve. According to the obtained viral DNA replication value, the inhibition rates of HBV-DNA replication of the compound of the present invention at different concentrations were calculated, and then the half inhibition rates of the compounds were calculated to obtain IC50. For the samples that can not be calculated for IC50 value, they can be represented by ICX and given the corresponding concentration values.

hepatitis B virus (HBV) [3] = test: HBsAg secretion in HepG2.2.15 culture supernatant (ELISA); type: cell-based; conditions: HepG2.2.15 supernatant, eighth day, read-out: HBsAg secreation IC50
Excerpt: as §1, §2, §3
(§4) HBsAg and HBeAg were detected with assaying kits (purchased from Sino-American biotechnological company). Samples were added to the coated strip plate, and the same amount of enzyme labeled conjugate was added, after reacting under 37° C. for 1 hour, the plate was washed 5 times. Colorant solutions A and B were added, and the reaction was stopped after 15 minutes, and OD450/630 was measured. The half inhibition rate IC50 of the sample for the HBV antigen was calculated according to the OD values.

[4] = Cytotoxicity to HepG2.2.15 cells (MTT method); type: cell-based; conditions: human, HepG2.2.15 cells (HBV-transgenic human hepatoma cells), 50% death concentration, eighth day
Excerpt: as §1, §2, §3

hepatitis B virus (HBV) [5] = test: HBeAg secretion in HepG2.2.15 culture supernatant (ELISA); type: cell-based; conditions: HepG2.2.15 supernatant, eighth day, read-out: HBeAg secreation IC50
Excerpt: as §1, §2, §3, §4

With Nc1nc2c(ncn2COCCO)c(=O)[nH]1 [ACV (acyclovir), acyclovir, reference compound] the TC50 [1] was >1000 µg/mL.
For Clc1nc(-c2cccs2)[nH]c1-c1ccccc1 [Wang260], the “DNA replication IC85” value (hepatitis B virus (HBV) [2]; ICX: concentration with 85% inhibition of HBV-DNA replication, IC50 not calculable) was “IC85 = 37 uM”, the IC50 (hepatitis B virus (HBV) [3]) was 71.4 µM and the CC50 [4] was 270 µM. For the same compound, the IC50 (hepatitis B virus (HBV) [5]) was 130 µM.
With Clc1nc(-c2nccs2)[nH]c1-c1ccccc1 [Wang261] the IC50 (hepatitis B virus (HBV) [3]) was 92.4 µM, the CC50 [4] was 123 µM and the IC50 (hepatitis B virus (HBV) [5]) was 37 µM.
Compound CCCc1[nH]c(-c2cccs2)nc1C(=O)OCC [Wang264] has an IC50 (hepatitis B virus (HBV) [3]) of 41.3 µM, a CC50 [4] of 124 µM and an IC50 (hepatitis B virus (HBV) [5]) of 95.5 µM.
With CCCc1[nH]c(-c2nccs2)nc1C(=O)OCC [Wang265] the “DNA replication IC44” value (hepatitis B virus (HBV) [2]; ICX: concentration with 44% inhibition of HBV-DNA replication, IC50 not calculable) was “IC44 = 4.1 uM”, the IC50 (hepatitis B virus (HBV) [3]) was 131 µM and the CC50 [4] was 548 µM. It also gave an IC50 (hepatitis B virus (HBV) [5]) of 38.8 µM.
With CC(C)Cc1sc(-c2nccs2)nc1C(=O)O [Wang268-1] the IC50 (hepatitis B virus (HBV) [2]; Hepatitis B virus) was 153 µM, the IC50 (hepatitis B virus (HBV) [3]) was 90 µM and the CC50 [4] was 437 µM. The IC50 (hepatitis B virus (HBV) [5]) was 101 µM.
With CCCCc1sc(-c2nccs2)nc1C(=O)O [Wang268] the “DNA replication IC53” value (hepatitis B virus (HBV) [2]; ICX: concentration with 53% inhibition of HBV-DNA replication, IC50 not calculable) was “IC53 = 125 uM”, the IC50 (hepatitis B virus (HBV) [3]) was 37.2 µM and the IC50 (hepatitis B virus (HBV) [5]) was 128 µM.
For CCOC(=O)c1nc(-c2cccs2)[nH]c1CC(C)C [Wang278-1], the “DNA replication IC88” value (hepatitis B virus (HBV) [2]; ICX: concentration with 88% inhibition of HBV-DNA replication, IC50 not calculable) was “IC88 = 1.37 uM”, the IC50 (hepatitis B virus (HBV) [3]) was 34.1 µM and the CC50 [4] was 90.3 µM. For the same compound, the IC50 (hepatitis B virus (HBV) [5]) was 19 µM.
CCCCc1[nH]c(-c2cccs2)nc1C(=O)OCC [Wang278] gave an IC50 (hepatitis B virus (HBV) [2]; Hepatitis B virus) of 4.8 µM, an IC50 (hepatitis B virus (HBV) [3]) of 67.3 µM and a CC50 [4] of 153 µM. It also gave an IC50 (hepatitis B virus (HBV) [5]) of 24 µM.
With CCOC(=O)c1nc(-c2nccs2)[nH]c1CC(C)C [Wang279-1] the “DNA replication IC60” value (hepatitis B virus (HBV) [2]; ICX: concentration with 60% inhibition of HBV-DNA replication, IC50 not calculable) was “IC60 = 37 uM”, the IC50 (hepatitis B virus (HBV) [3]) was 143 µM and the CC50 [4] was 786 µM. The IC50 (hepatitis B virus (HBV) [5]) was 102 µM.
COC(=O)c1nc(-c2nccs2)sc1CC(C)C [Wang282-1] showed an IC50 (hepatitis B virus (HBV) [2]; Hepatitis B virus) of 2.4 µM, an IC50 (hepatitis B virus (HBV) [3]) of 67.6 µM and an IC50 (hepatitis B virus (HBV) [5]) of 21.7 µM.
CCCCc1sc(-c2nccs2)nc1C(=O)OC [Wang282] gave an IC50 (hepatitis B virus (HBV) [2]; Hepatitis B virus) of 19.4 µM, an IC50 (hepatitis B virus (HBV) [3]) of 58.8 µM and a CC50 [4] of 397 µM. It also gave an IC50 (hepatitis B virus (HBV) [5]) of 57.3 µM.
In the case of CCOC(=O)c1nc(-c2cccs2)[nH]c1-c1ccccc1 [Wang298], the IC50 (hepatitis B virus (HBV) [3]) is reported as 144 µM, the CC50 [4] is reported as 569 µM and the IC50 (hepatitis B virus (HBV) [5]) is reported as 209 µM.
In the case of O=C(O)c1nc(-c2nccs2)sc1Cc1ccccc1 [Wang302], the IC50 (hepatitis B virus (HBV) [2]; Hepatitis B virus) is reported as 63.1 µM and the IC50 (hepatitis B virus (HBV) [5]) is reported as 83.2 µM.
COC(=O)c1nc(-c2nccs2)sc1Cc1ccccc1 [Wang316] gave an IC20 (hepatitis B virus (HBV) [2]; Hepatitis B virus, HepG2.2.15) of 31.3 µM, an IC50 (hepatitis B virus (HBV) [3]) of 33.7 µM and a CC50 [4] of 174 µM. The IC50 (hepatitis B virus (HBV) [5]) was 70.5 µM.
COC(=O)c1nc(-c2ncco2)sc1-c1ccc(F)cc1Cl [Wang338] gave an IC50 (hepatitis B virus (HBV) [2]; Hepatitis B virus) of 6.1 µM, an IC50 (hepatitis B virus (HBV) [3]) of 77.6 µM and a CC50 [4] of 200 µM. It also gave an IC50 (hepatitis B virus (HBV) [5]) of 22.3 µM.
